Data from PubChem BioAssay (NCI).
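GI50 = concentration required for 50% inhibition of growth. TGI: total growth inhibition.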

Tests used:
Assay in all cases: NCI-60 cell line screen, 384-well format
[1] = test system: LOX IMVI melanoma
[2] = test system: MALME-3M melanoma
[3] = test system: HS 578T breast
[4] = test system: T-47D breast
[5] = test system: OVCAR-8 ovarian
[6] = test system: MOLT-4 leukemia
[7] = test system: NCI-H322M lung
[8] = test system: RPMI-8226 leukemia
[9] = test system: CAKI-1 renal
[10] = test system: HOP-62 NSCLC
[11] = test system: OVCAR-4 ovarian
[12] = test system: K-562 leukemia
[13] = test system: SK-MEL-28 melanoma
[14] = test system: SF-539 CNS
[15] = test system: SF-268 CNS
[16] = test system: BT-549 breast
[17] = test system: OVCAR-3 ovarian
[18] = test system: ACHN renal
[19] = test system: UACC-62 melanoma
[20] = test system: NCI-H23 lung
[21] = test system: SN12C renal
[22] = test system: RXF 393 renal
[23] = test system: A498 renal
[24] = test system: SW-620 colon
[25] = test system: HOP-92 NSCLC
[26] = test system: PC-3 prostate
[27] = test system: IGROV1 ovarian
[28] = test system: UO-31 renal
[29] = test system: MCF7 breast
[30] = test system: MDA-MB-435 melanoma
[31] = test system: M14 melanoma
[32] = test system: KM12 colon
[33] = test system: HL-60(TB) leukemia
[34] = test system: 786-0 renal
[35] = test system: U251 glioblastoma
[36] = test system: DU-145 prostate
[37] = test system: NCI-H226 lung
[38] = test system: MDA-MB-468 breast
[39] = test system: TK-10 renal
[40] = test system: SK-MEL-5 melanoma
[41] = test system: NCI-H522 lung
[42] = test system: SF-295 CNS
[43] = test system: UACC-257 melanoma
[44] = test system: NCI/ADR-RES ovarian
[45] = test system: SNB-75 CNS
[46] = test system: MDA-MB-231 breast
[47] = test system: CCRF-CEM leukemia
[48] = test system: HT29 colon
[49] = test system: SK-OV-3 ovarian
[50] = test system: COLO 205 colon
[51] = test system: EKVX NSCLC
[52] = test system: SNB-19 CNS
[53] = test system: HCC-2998 colon
[54] = test system: HCT-15 colon
[55] = test system: NCI-H460 NSCLC
[56] = test system: HCT-116 colon
[57] = test system: A549 NSCLC

Compound: COc1cc2nc(N3CCCN(C)CC3)nc(NC3CCN(Cc4ccccc4)CC3)c2cc1OC
- GI50 [1]: 1540 nM
- TGI [1]: 2890 nM
- GI50 [2]: 1150 nM
- TGI [2]: 2370 nM
- GI50 [3]: 1480 nM
- TGI [3]: 2810 nM
- GI50 [4]: 1780 nM
- TGI [4]: 3200 nM
- GI50 [5]: 1030 nM
- TGI [5]: 2240 nM
- GI50 [6]: 538 nM
- TGI [6]: 1840 nM
- GI50 [7]: 1440 nM
- TGI [7]: 2840 nM
- GI50 [8]: 449 nM
- TGI [8]: 1540 nM
- GI50 [9]: 578 nM
- TGI [9]: 1830 nM
- GI50 [10]: 1760 nM
- TGI [10]: 3170 nM
- GI50 [11]: 1010 nM
- TGI [11]: 2190 nM
- GI50 [12]: 163 nM
- TGI [12]: 366 nM
- GI50 [13]: 1640 nM
- TGI [13]: 3020 nM
- GI50 [14]: 339 nM
- TGI [14]: 916 nM
- GI50 [15]: 943 nM
- TGI [15]: 2140 nM
- GI50 [16]: 1090 nM
- TGI [16]: 2300 nM
- GI50 [17]: 540 nM
- TGI [17]: 1710 nM
- GI50 [18]: 1650 nM
- TGI [18]: 3040 nM
- GI50 [19]: 1280 nM
- TGI [19]: 2570 nM
- GI50 [20]: 1560 nM
- TGI [20]: 3160 nM
- GI50 [21]: 1720 nM
- TGI [21]: 3220 nM
- GI50 [22]: 572 nM
- TGI [22]: 1890 nM
- GI50 [23]: 625 nM
- TGI [23]: 1830 nM
- GI50 [24]: 405 nM
- TGI [24]: 1450 nM
- GI50 [25]: 1380 nM
- TGI [25]: 2720 nM
- GI50 [26]: 1140 nM
- TGI [26]: 2550 nM
- GI50 [27]: 1850 nM
- TGI [27]: 3830 nM
- GI50 [28]: 1780 nM
- TGI [28]: 3180 nM
- GI50 [29]: 694 nM
- TGI [29]: 2020 nM
- GI50 [30]: 1570 nM
- TGI [30]: 2930 nM
- GI50 [31]: 600 nM
- TGI [31]: 1850 nM
- GI50 [32]: 434 nM
- TGI [32]: 1670 nM
- GI50 [33]: 233 nM
- TGI [33]: 541 nM
- GI50 [34]: 1300 nM
- TGI [34]: 2590 nM
- GI50 [35]: 1150 nM
- TGI [35]: 2390 nM
- GI50 [36]: 1380 nM
- TGI [36]: 2730 nM
- GI50 [37]: 1590 nM
- TGI [37]: 3180 nM
- GI50 [38]: 1200 nM
- TGI [38]: 2450 nM
- GI50 [39]: 1180 nM
- TGI [39]: 2500 nM
- GI50 [40]: 968 nM
- TGI [40]: 2160 nM
- GI50 [41]: 1430 nM
- TGI [41]: 2750 nM
- GI50 [42]: 1550 nM
- TGI [42]: 2890 nM
- GI50 [43]: 178 nM
- TGI [43]: 319 nM
- GI50 [44]: 4780 nM
- TGI [44]: 15900 nM
- GI50 [45]: 1660 nM
- TGI [45]: 3040 nM
- GI50 [46]: 725 nM
- TGI [46]: 2110 nM
- GI50 [47]: 227 nM
- TGI [47]: 622 nM
- GI50 [48]: 395 nM
- TGI [48]: 1320 nM
- GI50 [49]: 1350 nM
- TGI [49]: 2660 nM
- GI50 [50]: 1340 nM
- TGI [50]: 2640 nM
- GI50 [51]: 1650 nM
- TGI [51]: 3620 nM
- GI50 [52]: 1510 nM
- TGI [52]: 3340 nM
- GI50 [53]: 867 nM
- TGI [53]: 2130 nM
- GI50 [54]: 611 nM
- TGI [54]: 1900 nM
- GI50 [55]: 456 nM
- TGI [55]: 1500 nM
- GI50 [56]: 351 nM
- TGI [56]: 1020 nM
- GI50 [57]: 1660 nM
- TGI [57]: 3080 nM
